# Data as given in ChEMBL document CHEMBL5029183 (J Med Chem, 2021).
# Activity calls are given as the source filed them.
# Columns and labels:
# Rattus norvegicus [1] = species on record: Rattus norvegicus; experiment: Selectivity index, ratio of Ki for displacement of [3H]DPDPE from DOR in Wistar rat brain membranes to Ki for displacement of [3H]DAMGO from MOR in Wistar rat brain membranes; assay type: cell membranes
# Mu-type opioid receptor [2] = target: T1, Mu-type opioid receptor (Homo sapiens, UniProt P35372); experiment: Agonist activity at mu-opioid receptor (unknown origin) expressed in HEK293 cells assessed as inhibition of forskolin-induced cAMP accumulation incubated for 15 mins by ELISA relative to control; assay type: functional, cell-based; conditions: filed as agonist
# T1 sequence (P35372 whole entry): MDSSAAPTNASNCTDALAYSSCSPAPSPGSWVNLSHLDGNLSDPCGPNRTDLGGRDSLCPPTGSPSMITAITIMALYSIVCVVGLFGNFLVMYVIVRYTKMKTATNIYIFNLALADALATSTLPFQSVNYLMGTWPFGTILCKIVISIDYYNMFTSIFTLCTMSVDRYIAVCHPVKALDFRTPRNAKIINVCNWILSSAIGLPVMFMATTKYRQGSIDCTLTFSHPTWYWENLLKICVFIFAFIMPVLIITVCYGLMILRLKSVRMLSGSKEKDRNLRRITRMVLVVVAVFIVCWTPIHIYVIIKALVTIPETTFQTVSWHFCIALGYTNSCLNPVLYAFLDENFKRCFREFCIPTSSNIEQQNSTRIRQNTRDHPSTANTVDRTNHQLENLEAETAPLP
# Mu-type opioid receptor [3] = target: Mu-type opioid receptor (Rattus norvegicus, UniProt P33535); experiment: Displacement of [3H]DAMGO from MOR in Wistar rat brain membranes measured after 1 hr by scintillation counting method; assay type: cell membranes, Membrane
# Sequence of Mu-type opioid receptor (Rattus norvegicus, UniProt P33535) (P33535 whole entry): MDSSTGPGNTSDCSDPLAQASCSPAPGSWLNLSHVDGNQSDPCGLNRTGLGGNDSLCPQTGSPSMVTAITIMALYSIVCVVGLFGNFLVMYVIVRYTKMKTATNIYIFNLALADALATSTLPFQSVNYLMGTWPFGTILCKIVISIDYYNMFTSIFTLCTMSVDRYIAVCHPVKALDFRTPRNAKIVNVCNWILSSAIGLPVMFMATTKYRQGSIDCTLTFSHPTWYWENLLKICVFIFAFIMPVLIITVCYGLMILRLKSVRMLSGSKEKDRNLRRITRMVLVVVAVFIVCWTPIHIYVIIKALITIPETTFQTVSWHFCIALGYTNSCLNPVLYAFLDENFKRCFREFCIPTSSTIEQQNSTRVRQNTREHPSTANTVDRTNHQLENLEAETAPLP
# Vas deferens = experiment: Inhibition of electric-field induced mouse vas deferens contraction; assay type: functional, tissue-based
# Ileum = experiment: Inhibition of electric-field induced guinea pig ileum contraction; assay type: functional, tissue-based; conditions: Cavia porcellus
# [4] = target: Delta-type opioid receptor (Homo sapiens) (UniProt P41143); experiment: Agonist activity at delta-opioid receptor (unknown origin) expressed in HEK293 cells assessed as inhibition of forskolin-induced cAMP accumulation incubated for 15 mins by ELISA; assay type: functional, cell-based
# Sequence of Delta-type opioid receptor (Homo sapiens) (P41143 whole entry): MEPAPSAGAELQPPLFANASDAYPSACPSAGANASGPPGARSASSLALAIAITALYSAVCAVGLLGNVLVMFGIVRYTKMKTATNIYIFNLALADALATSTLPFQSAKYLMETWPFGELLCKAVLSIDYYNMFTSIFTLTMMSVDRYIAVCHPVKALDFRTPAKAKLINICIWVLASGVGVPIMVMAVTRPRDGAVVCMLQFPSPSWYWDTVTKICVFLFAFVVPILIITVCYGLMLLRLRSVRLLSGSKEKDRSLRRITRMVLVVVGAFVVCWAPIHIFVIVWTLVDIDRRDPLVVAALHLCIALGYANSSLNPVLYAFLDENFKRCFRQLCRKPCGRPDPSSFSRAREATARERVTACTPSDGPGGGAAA
# Mu-type opioid receptor [5] = target: T1, Mu-type opioid receptor; experiment: Agonist activity at mu-opioid receptor (unknown origin) expressed in HEK293 cells assessed as inhibition of forskolin-induced cAMP accumulation incubated for 15 mins by ELISA; assay type: functional, cell-based
# [6] = target: Kappa-type opioid receptor (Homo sapiens) (UniProt P41145); experiment: Agonist activity at kappa-opioid receptor (unknown origin) expressed in HEK293 cells assessed as inhibition of forskolin-induced cAMP accumulation incubated for 15 mins by ELISA; assay type: functional, cell-based
# Sequence of Kappa-type opioid receptor (Homo sapiens) (P41145 whole entry): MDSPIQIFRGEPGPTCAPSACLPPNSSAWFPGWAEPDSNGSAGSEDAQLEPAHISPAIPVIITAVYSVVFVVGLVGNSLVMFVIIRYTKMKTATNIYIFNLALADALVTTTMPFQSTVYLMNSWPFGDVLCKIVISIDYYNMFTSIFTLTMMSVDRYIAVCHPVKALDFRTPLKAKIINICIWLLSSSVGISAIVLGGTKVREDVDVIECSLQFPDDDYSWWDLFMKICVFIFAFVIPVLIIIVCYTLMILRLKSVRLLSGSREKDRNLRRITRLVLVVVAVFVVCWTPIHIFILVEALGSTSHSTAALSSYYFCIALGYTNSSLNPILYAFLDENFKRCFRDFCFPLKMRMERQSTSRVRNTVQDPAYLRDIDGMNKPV
# [7] = target: Delta-type opioid receptor (Rattus norvegicus, UniProt P33533); experiment: Displacement of [3H]DPDPE from DOR in Wistar rat brain membranes measured after 3 hrs by scintillation counting method; assay type: cell membranes, Membrane
# Sequence of Delta-type opioid receptor (P33533 whole entry): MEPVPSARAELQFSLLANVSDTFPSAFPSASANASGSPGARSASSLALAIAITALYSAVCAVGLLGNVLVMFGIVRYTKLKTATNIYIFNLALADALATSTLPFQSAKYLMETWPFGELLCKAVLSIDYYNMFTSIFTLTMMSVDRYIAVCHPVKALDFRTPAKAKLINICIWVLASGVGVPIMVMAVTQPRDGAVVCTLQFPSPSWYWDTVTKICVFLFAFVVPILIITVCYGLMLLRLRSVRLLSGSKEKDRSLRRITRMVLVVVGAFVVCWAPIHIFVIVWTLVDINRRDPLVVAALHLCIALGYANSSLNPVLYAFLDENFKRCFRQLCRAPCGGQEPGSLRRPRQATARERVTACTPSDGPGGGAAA
# Rattus norvegicus [8] = species on record: Rattus norvegicus; experiment: Selectivity index, ratio of Ki for displacement of [3H]-U69593 from KOR in Wistar rat brain membranes to Ki for displacement of [3H]DAMGO from MOR in Wistar rat brain membranes; assay type: cell membranes
# [9] = Metabolic stability in Kunming mouse serum assessed as half life measured upto 480 mins by RP-HPLC analysis; assay type: ADME, cell-free
# [10] = Metabolic stability in Kunming mouse brain assessed as half life measured upto 480 mins by RP-HPLC analysis; assay type: ADME, tissue-based
# [11] = Toxicity in Kunming mouse model assessed as conditioned place preference time at 10 micromol/kg, sc; conditions: in vivo, dose 10 µmol/kg
# [12] = Toxicity in Kunming mouse model assessed as conditioned place preference time at 20 nmol, icv; conditions: in vivo, icv_or_intrathecal
# [13] = Toxicity in Kunming mouse assessed as effect on motor coordination at 20 nmol, icv by rotarod test; conditions: in vivo, icv_or_intrathecal
# Mus musculus [14] = experiment: Antinociceptive activity in Kunming mouse model assessed as maximum possible effect at 10 micromol/kg, sc by radiant heat paw withdrawal assay; assay type: functional; conditions: dose 10 µmol/kg
# Mus musculus [15] = experiment: Antiallodynic activity in Kunming mouse model of spared nerve injury-induced neuropathic pain assessed as increase in paw withdrawal threshold at 10 micromol/kg, sc measured at 20 to 50 mins by von Frey test; assay type: functional, organism-based; conditions: dose 10.0 µmol/kg, time 20-50 min
# [16] = Toxicity in Kunming mouse assessed as effect on motor coordination at 10 micromol/kg, sc by rotarod test; assay type: organism-based; conditions: in vivo, dose 10 µmol/kg
# Mus musculus [17] = experiment: Chronic antinociceptive tolerance in Kunming mouse pretreated with compound followed by repeated compound addition at 10 micromol/kg, sc once daily for 7 days and measured after 20 mins by radiant heat paw withdrawal test; assay type: functional, organism-based; conditions: dose 10.0 µmol/kg, time 7.0 day
# [18] = Toxicity in icv dosed Kunming mouse assessed as inhibition of gastrointestinal transit by measuring charcoal distance travel by charcoal meal test; assay type: organism-based; conditions: in vivo, icv_or_intrathecal, dose 0.67-6.7 nmol
# [19] = Toxicity in Kunming mouse assessed as inhibition of gastrointestinal transit at 10 micromol/kg, sc by charcoal meal test (reference value: 70.3 +/- 3 %); assay type: organism-based; set-up: scale not given: the % may be the effect or the level left; conditions: in vivo
# Mus musculus [20] = experiment: Chronic antinociceptive tolerance in Kunming mouse pretreated with compound followed by repeated compound addition at 20 nmol, icv once daily for 7 days and measured after 15 mins by radiant heat paw withdrawal test; assay type: functional, organism-based; conditions: time 7.0 day
# Mus musculus [21] = experiment: Antinociceptive activity in Kunming mouse model assessed as increase in paw withdrawal latency at 20 nmol, icv pretreated for 10 mins with naloxone followed by compound addition and measured upto 10 mins by radiant heat paw withdrawal assay; assay type: functional, organism-based; conditions: time min <=10
# Mus musculus [22] = experiment: Antinociceptive activity in Kunming mouse model assessed as increase in paw withdrawal latency at 0.67 to 20 nmol, icv measured after 5 mins by radiant heat paw withdrawal assay; assay type: functional, organism-based; conditions: dose 0.67-20 nmol
# Mus musculus [23] = experiment: Antinociceptive activity in Kunming mouse model assessed as increase in paw withdrawal latency at 20 nmol, icv pretreated for 30 mins with nor-BNI followed by compound addition and measured upto 10 mins by radiant heat paw withdrawal assay; assay type: functional, organism-based; conditions: time min <=10
# Mus musculus [24] = experiment: Antinociceptive activity in icv dosed Kunming mouse model assessed as increase in paw withdrawal latency by radiant heat paw withdrawal assay; assay type: functional; conditions: dose 0.67-20 nmol
# Mus musculus [25] = experiment: Antinociceptive activity in Kunming mouse model assessed as increase in paw withdrawal latency at 0.67 to 20 nmol, icv by radiant heat paw withdrawal assay; assay type: functional, organism-based; conditions: dose 0.67-20 nmol, TDE = time-dependent effect
# Mus musculus [26] = experiment: Antinociceptive activity in Kunming mouse model assessed as increase in paw withdrawal latency at 10 micromol/kg, sc by radiant heat paw withdrawal assay; assay type: functional, organism-based; conditions: dose 10.0 µmol/kg
# Mus musculus [27] = experiment: Antinociceptive activity in Kunming mouse model assessed as increase in paw withdrawal latency at 20 nmol, icv pretreated for 4 hrs with beta-FNA followed by compound addition and measured upto 10 mins by radiant heat paw withdrawal assay; assay type: functional, organism-based; conditions: time min <=10
# Mus musculus [28] = experiment: Antinociceptive activity in Kunming mouse model assessed as increase in paw withdrawal latency at 0.67 to 20 nmol, icv measured after 20 mins by radiant heat paw withdrawal assay; assay type: functional, organism-based; conditions: dose 0.67-20 nmol
# Mus musculus [29] = experiment: Antinociceptive activity in Kunming mouse model assessed as increase in paw withdrawal latency at 20 nmol, icv pretreated for 20 mins with naloxonazine followed by compound addition and measured upto 10 mins by radiant heat paw withdrawal assay; assay type: functional, organism-based; conditions: time min <=10
# Mus musculus [30] = experiment: Chronic antinociceptive tolerance in Kunming mouse pretreated with compound followed by repeated compound addition at 20 nmol, icv once daily for 7 days and measured after 5 mins by radiant heat paw withdrawal test; assay type: functional, organism-based; conditions: time 7.0 day
# Mus musculus [31] = species on record: Mus musculus; experiment: Antinociceptive tolerance in Kunming mouse pretreated with saline for 2 hrs followed by compound addition by radiant heat paw withdrawal test; assay type: functional
# Mus musculus [32] = species on record: Mus musculus; experiment: Antinociceptive tolerance in Kunming mouse pretreated with 3 times ED50 of compound for 2 hrs followed by challenge with second dose of compound by radiant heat paw withdrawal test; assay type: functional
Compound,Ratio Ki (Rattus norvegicus [1]),Emax (Mu-type opioid receptor [2]),Ki (Mu-type opioid receptor [3]),IC50 (Vas deferens),IC50 (Ileum),Activity [4],EC50 (Mu-type opioid receptor [5]),Activity [6],Ki [7],Ratio Ki (Rattus norvegicus [8]),half-life [9],half-life [10],Time [11],Time [12],Activity [18],also measured
N=C(N)NCCC[C@@H](NC(=O)[C@@H](CCCNC(=N)N)NC(=O)CNC(=O)[C@@H]1CSSC[C@H](NC(=O)[C@@H](N)Cc2ccc(O)cc2)C(=O)N[C@@H](Cc2c[nH]c3ccccc23)C(=O)N[C@@H](Cc2ccccc2)C(=O)N1)C(=O)O,249,77.2%,40.1 nM,97.5 nM,70.2 nM,inactive,160 nM,inactive,> 10000 nM,> 249,3.28 h,4.23 h,,,,
N=C(N)NCCC[C@@H](NC(=O)[C@@H](CCCNC(=N)N)NC(=O)CNC(=O)[C@@H]1CSSC[C@H](NC(=O)[C@@H](N)Cc2ccc(O)cc2)C(=O)N[C@@H](Cc2ccccc2)C(=O)N[C@@H](Cc2ccccc2)C(=O)N1)C(=O)O,221,79.7%,45.3 nM,108 nM,74.6 nM,inactive,154 nM,inactive,> 10000 nM,> 221,3.6 h,4.12 h,,,,
N=C(N)NCCC[C@@H](NC(=O)[C@@H](CCCNC(=N)N)NC(=O)CNC(=O)[C@@H]1CSSC[C@H](NC(=O)[C@@H](N)Cc2ccc(O)cc2)C(=O)N[C@@H](Cc2ccccc2)C(=O)N[C@@H](Cc2ccc(Cl)cc2)C(=O)N1)C(=O)O,> 149,79.6%,67.2 nM,139 nM,102 nM,inactive,202 nM,inactive,> 10000 nM,> 149,4.47 h,5.85 h,,,,
CN1CC[C@]23c4c5ccc(O)c4O[C@H]2[C@@H](O)C=C[C@H]3[C@H]1C5 [MORPHINE],,,,,,,,,,,,,447 s,451 s,Dose-Dependent Effect,Activity [13]: Toxic; MPE (Mus musculus [14]): 41.05%; Activity (Mus musculus [15]): Active; Activity [16]: Toxic; Activity (Mus musculus [17]): Active; Activity ([19]; dose 10 µmol/kg): Toxic; Activity (Mus musculus [20]): Active
NC(=O)[C@H](Cc1ccccc1)NC(=O)[C@H](Cc1c[nH]c2ccccc12)NC(=O)[C@@H]1CCCN1C(=O)[C@@H](N)Cc1ccc(O)cc1 [ENDOMORPHIN-1],,,,50.1 nM,8.73 nM,,,,,,,,451 s,455 s,Dose-Dependent Effect,Activity (Mus musculus [21]): inactive; Activity (Mus musculus [22]): inactive; Activity (Mus musculus [23]): Active; Activity (Mus musculus [24]): Dose-Dependent Effect; Activity (Mus musculus [25]): Tde; Activity (Mus musculus [26]): inactive; Activity ([19]; at 10 µmol/kg): 68.1%; Activity (Mus musculus [27]): inactive; Activity (Mus musculus [28]): inactive; Activity (Mus musculus [29]): Active; Activity (Mus musculus [30]): Active
N=C(N)NCCC[C@@H](NC(=O)[C@@H](CCCNC(=N)N)NC(=O)CNC(=O)[C@@H]1CSSC[C@H](NC(=O)[C@@H](N)Cc2ccc(O)cc2)C(=O)N[C@@H](Cc2c[nH]c3ccccc23)C(=O)N[C@@H](Cc2ccc(Cl)cc2)C(=O)N1)C(=O)O,> 145,80.6%,68.9 nM,138 nM,97.4 nM,inactive,189 nM,inactive,> 10000 nM,> 145,4.57 h,5.8 h,,,,
NC(=O)[C@H](Cc1ccccc1)NC(=O)[C@H](Cc1ccccc1)NC(=O)[C@@H]1CCCN1C(=O)[C@@H](N)Cc1ccc(O)cc1 [ENDOMORPHIN 2],,,,42.9 nM,11.3 nM,,,,,,0.148 h,0.258 h,445 s,449 s,Dose-Dependent Effect,ED50 (Mus musculus [31]): 6.4 nmol; Activity (Mus musculus [21]): inactive; Activity (Mus musculus [22]): inactive; Activity (Mus musculus [23]): inactive; Activity (Mus musculus [24]): Dose-Dependent Effect; ED50 (Mus musculus [24]): 6.4 nmol; Activity (Mus musculus [25]): Tde; Activity (Mus musculus [26]): inactive; ED50 (Mus musculus [32]): 20.6 nmol; Activity ([19]; at 10 µmol/kg): 68.8%; Activity (Mus musculus [27]): inactive; Activity (Mus musculus [28]): inactive; Activity (Mus musculus [29]): inactive; Activity (Mus musculus [30]): Active
